Measurements published in the NIST ThermoML archive (doi:10.1016/j.jct.2010.12.028).
Numbers after ± are expanded uncertainties.

Details: 298.15 K, 101.33 kPa, Liquid; for speed of sound: Sing-around technique in a fixed-path interferometer; for mass density: Vibrating tube method

SMILES	speed of sound	mass density
Cc1ccccc1N [2-methylaniline]	1602.6 ± 2.4 m/s	994.351 ± 0.24 kg/m3
Cc1ccccn1 [2-methylpyridine]	1380.1 ± 2.9 m/s	939.802 ± 0.77 kg/m3
Cc1cccnc1 [3-methylpyridine]	1424 ± 2.3 m/s	952.002 ± 0.24 kg/m3
Cc1ccncc1 [4-methylpyridine]	1431.5 ± 2.3 m/s	950.179 ± 0.24 kg/m3
c1ccncc1 [pyridine]	1417.8 ± 2.3 m/s	978.249 ± 0.24 kg/m3
